ChEMBL document CHEMBL1926670, “1,2-Benzothiazine 1,1-dioxide carboxylate derivatives as novel potent inhibitors of aldose reductase” (Bioorg Med Chem, 2011)

Experiments:
[1] = biological target: Aldo-keto reductase family 1 member B1 (Rattus norvegicus, UniProt P07943); experiment: Inhibition of Wistar rat lens ALR2 using D,L-glyceraldehyde as substrate after 10 mins by UV/VIS double spectrophotometric analysis; type: tissue-based, Lens of camera-type eye
[2] = biological target: Aldo-keto reductase family 1 member A1 (Rattus norvegicus, UniProt P51635); experiment: Inhibition of Wistar rat kidney ALR1 using D-glucuronate as substrate after 10 mins by UV/VIS double spectrophotometric analysis
Aldo-keto reductase family 1 member A1, sequence (P51635 whole entry, looked up): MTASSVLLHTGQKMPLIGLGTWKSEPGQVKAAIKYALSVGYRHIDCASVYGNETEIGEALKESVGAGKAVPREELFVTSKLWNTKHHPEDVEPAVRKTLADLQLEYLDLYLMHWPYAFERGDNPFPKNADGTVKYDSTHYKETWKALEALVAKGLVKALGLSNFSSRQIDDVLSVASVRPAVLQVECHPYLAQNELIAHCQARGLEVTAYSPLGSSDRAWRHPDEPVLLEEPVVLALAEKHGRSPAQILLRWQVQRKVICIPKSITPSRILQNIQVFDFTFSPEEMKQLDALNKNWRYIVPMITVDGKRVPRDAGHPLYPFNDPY

[3] = biological target: Aldo-keto reductase family 1 member B1 (Rattus norvegicus) (UniProt P07943); experiment: Inhibition of Wistar rat lens ALR2 using D,L-glyceraldehyde as substrate at 10 uM after 10 mins by UV/VIS double spectrophotometric analysis; type: tissue-based; details: Lens of camera-type eye

Structure (SMILES)	IC50 [1] [µM]	IC50 [2] [µM]	inhibition [3] [%]
O=C(O)/C=C1\CN(Cc2cc(F)c(F)cc2F)S(=O)(=O)c2ccccc21 (mixture of isomers)	0.59	> 10	
O=C(O)/C=C1\CN(Cc2ccc(C(F)(F)F)cc2)S(=O)(=O)c2ccccc21 (mixture of isomers)	6.13		
O=C(O)/C=C1\CN(Cc2ccc(Br)cc2F)S(=O)(=O)c2ccccc21 (mixture of isomers)	0.11	> 10	
O=C(O)/C=C1\CN(Cc2cccc([N+](=O)[O-])c2)S(=O)(=O)c2ccccc21 (mixture of isomers)	0.14	> 10	
O=C(O)/C=C1\CN(Cc2ccccc2F)S(=O)(=O)c2ccccc21 (mixture of isomers)	2.13		
O=C(O)/C=C1\CN(Cc2cc(C(F)(F)F)cc(C(F)(F)F)c2)S(=O)(=O)c2ccccc21 (mixture of isomers)			32
O=C(O)CC1CN(Cc2cc(F)c(F)cc2F)S(=O)(=O)c2ccccc21 (racemic)	0.34	> 10	
O=C(O)CC1CN(Cc2cc(C(F)(F)F)cc(C(F)(F)F)c2)S(=O)(=O)c2ccccc21 (racemic)	10.4		
O=C(O)CC1CN(Cc2ccc(C(F)(F)F)cc2)S(=O)(=O)c2ccccc21 (racemic)	5.3		
O=C(O)CC1CN(Cc2ccccc2F)S(=O)(=O)c2ccccc21 (racemic)	1.73		
